# Source: publication PMC4907692, “Engineering vanilloid-sensitivity into the rat TRPV2 channel” (eLife, 2016)
# Like-named read-outs stand apart in the source and are kept apart here.
# What was measured:
# [1] = biological target: T1, full-length GFP-tagged TRPV1 (Rattus norvegicus, UniProt O35433); assay: 3H-RTx binding to intact S. cerevisiae cells expressing GFP-tagged TRPV1; details: 37°C; for Kd: read-out: Kd of 3H-RTx binding (Hill fit)
# T1 construct: Smooth function for full-length GFP-tagged TRPV1 is a fit of the Hill equation; expressed in transfected cells; host or cells: Saccharomyces cerevisiae (intact cells)
# T1 sequence (O35433 whole entry): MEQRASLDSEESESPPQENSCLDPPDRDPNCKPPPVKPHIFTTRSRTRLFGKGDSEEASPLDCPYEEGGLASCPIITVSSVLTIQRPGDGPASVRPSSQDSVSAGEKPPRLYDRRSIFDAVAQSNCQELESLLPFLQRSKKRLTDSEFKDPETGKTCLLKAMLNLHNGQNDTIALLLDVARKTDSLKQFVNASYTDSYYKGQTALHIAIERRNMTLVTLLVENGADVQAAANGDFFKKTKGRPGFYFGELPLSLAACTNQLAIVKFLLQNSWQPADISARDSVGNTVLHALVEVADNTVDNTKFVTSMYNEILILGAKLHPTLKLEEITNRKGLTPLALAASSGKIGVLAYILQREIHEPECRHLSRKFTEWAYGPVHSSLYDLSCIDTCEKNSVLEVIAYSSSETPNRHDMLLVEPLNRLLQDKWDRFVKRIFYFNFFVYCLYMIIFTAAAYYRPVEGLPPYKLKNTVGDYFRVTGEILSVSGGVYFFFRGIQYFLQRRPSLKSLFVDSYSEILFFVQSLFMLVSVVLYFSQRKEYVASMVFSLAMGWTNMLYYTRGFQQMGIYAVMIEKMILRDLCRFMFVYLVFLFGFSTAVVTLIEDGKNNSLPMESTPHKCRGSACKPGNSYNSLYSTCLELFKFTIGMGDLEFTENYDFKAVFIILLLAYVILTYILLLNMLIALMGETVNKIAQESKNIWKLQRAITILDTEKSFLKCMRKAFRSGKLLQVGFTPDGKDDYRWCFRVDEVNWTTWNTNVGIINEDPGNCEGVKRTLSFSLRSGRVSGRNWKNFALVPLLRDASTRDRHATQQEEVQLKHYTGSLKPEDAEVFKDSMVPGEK
# Procedure: To evaluate whether these constructs were competent to bind vanilloids, we initially measured the binding of [^3H]-RTx ([Szallasi and Blumberg, 1999]; [Szallasi et al., 1999]) to intact yeast cells expressing each of the constructs.
# S. cerevisiae cells overexpressing TRPV1 constructs to be used in ligand binding assays on intact cells (Figure 1E,F) were grown as for small scale expression trials. 24 hr after protein induction cells were spun down at 4000g, the supernatant was removed and the pellet resuspended in 1x PBS, normalizing OD600 to 75 for each sample, and aliquoted for storage at -80°C. ^3H-RTx binding assays on cells were performed at 37°C as previously described ([Feng et al., 2015]), but where non-specific binding of RTx was measured using cells expressing GFP alone. The binding of RTx to TRPV1 and TRPV2 in membranes (e.g. Figure 2A,B and 5C) was performed at 37°C unless otherwise stated using membranes prepared from large scale protein preparations of S. cerevisiae containing rat TRPV1 and TRPV2 with a 1D4 tag expressed using a constitutive promoter as in [Moiseenkova-Bell et al., 2008]. Data for binding of RTx to membranes was corrected for non-specific binding, determined using either excess non-radioactive ligand or heat inactivation of the protein, as previously described ([Feng et al., 2015]). The TRPV1-activating double-knot toxin (DkTx) was produced recombinantly, folded in vitro and purified as previously described ([Bae et al., 2012]). Yeast membranes were incubated with DkTx solution for 1 hr at 4°C with gentle agitation prior to undertaking RTx binding assays.
# [2] = biological target: T2, 1D4-tagged WT TRPV2 (Rattus norvegicus, UniProt Q9WUD2); assay: 3H-RTx binding to yeast membranes containing 1D4-tagged WT TRPV2
# T2 construct: made in house; host or cells: S. cerevisiae BJ5457, isolated membranes
# T2 sequence (Q9WUD2 1-761): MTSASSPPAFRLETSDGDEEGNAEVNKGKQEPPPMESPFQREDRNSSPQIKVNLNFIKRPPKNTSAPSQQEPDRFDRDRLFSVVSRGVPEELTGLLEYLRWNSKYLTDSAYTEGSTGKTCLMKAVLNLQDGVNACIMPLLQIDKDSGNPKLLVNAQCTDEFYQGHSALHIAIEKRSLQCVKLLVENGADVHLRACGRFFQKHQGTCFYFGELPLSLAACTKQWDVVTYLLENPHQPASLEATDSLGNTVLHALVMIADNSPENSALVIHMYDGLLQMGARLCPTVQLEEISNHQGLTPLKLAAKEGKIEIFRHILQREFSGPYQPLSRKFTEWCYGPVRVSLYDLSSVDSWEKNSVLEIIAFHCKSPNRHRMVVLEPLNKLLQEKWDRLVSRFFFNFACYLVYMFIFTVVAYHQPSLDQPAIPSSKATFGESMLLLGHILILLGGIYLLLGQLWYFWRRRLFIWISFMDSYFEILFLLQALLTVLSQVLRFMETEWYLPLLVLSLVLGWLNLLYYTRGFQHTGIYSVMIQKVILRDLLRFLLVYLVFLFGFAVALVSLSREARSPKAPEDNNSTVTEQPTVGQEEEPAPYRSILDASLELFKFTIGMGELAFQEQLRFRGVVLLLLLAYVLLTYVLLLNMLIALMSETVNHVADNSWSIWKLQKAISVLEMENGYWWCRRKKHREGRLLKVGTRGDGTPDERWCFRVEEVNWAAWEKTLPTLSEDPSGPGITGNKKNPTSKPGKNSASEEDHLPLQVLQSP
# Excerpt: To examine the strength of RTx binding to the TRPV2 channel, we undertook binding assays after expressing 1D4-tagged TRPV2 and TRPV2 QM in S. cerevisiae and isolating yeast membranes, similar to the experiments described above with TRPV1 (Figure 2). […] To examine the relative importance of the four residues for mediating RTx sensitivity in the TRPV2 QM, we constructed triple mutants and evaluated their sensitivity to RTx electrophysiologically.
# The full-length TRPV1 and TRPV2 channels with 1D4 affinity tags ([…]) on their C-termini were cloned into the YEpHIS vector and expressed in the BJ5457 strain of S. cerevisiae using the strong constitutively active PMA1 promoter, as previously described ([Moiseenkova-Bell et al., 2008]). After 48 hr of expression at 30°C in YPD media, cells were harvested by centrifugation and re-suspended in PBS buffer, supplemented with complete protease inhibitor cocktail (Roche, Indianapolis, IN) and 4-amidinophenylmethanesulfonyl fluoride hydrochloride (APMSF) (Sigma-Aldrich, St. Louis, MO). Cells were broken by passing through an Avestin homogenizer at the pressure of 35 kpsi, cell lysate was cleared by centrifugation at 8,000 g for 15 min and membranes were isolated by ultracentrifugation at 190,000 g for 1 hr. […]
# S. cerevisiae cells overexpressing TRPV1 constructs to be used in ligand binding assays on intact cells (Figure 1E,F) were grown as for small scale expression trials. 24 hr after protein induction cells were spun down at 4000g, the supernatant was removed and the pellet resuspended in 1x PBS, normalizing OD600 to 75 for each sample, and aliquoted for storage at -80°C. ^3H-RTx binding assays on cells were performed at 37°C as previously described ([Feng et al., 2015]), but where non-specific binding of RTx was measured using cells expressing GFP alone. […] Data for binding of RTx to membranes was corrected for non-specific binding, determined using either excess non-radioactive ligand or heat inactivation of the protein, as previously described ([Feng et al., 2015]). […]
compound,measurement,setting,value
"C=C(C)[C@]12C[C@@H](C)[C@@]34O[C@](Cc5ccccc5)(O[C@@H]1[C@@H]3C=C(COC(=O)Cc1ccc(O)c(OC)c1)C[C@]1(O)C(=O)C(C)=C[C@@H]41)O2 [RTx, resiniferatoxin]",Hill slope (nH),[1]; Figure 1E,0.78
same,Kd,[1]; Figure 1E,7 nM
same,Hill slope (nH),[1]; Figure 1F,0.82
same,Kd,[1]; Figure 1F,7.2 nM
same,RTx binding in words,[2],weak binding
same,Hill slope (nH),[2]; 37°C,0.9
same,Kd,"[2]; 37°C, read-out: Kd of 3H-RTx binding (Hill fit)",> 200 nM
